Results as given in publication PMC5126668 (PeerJ, 2016).

Tests used:
CYP2C9 = target: T1, CYP2C9 (Homo sapiens, UniProt P11712); assay: Inhibition of CYP activities by GA in HLMs (tolbutamide); type: biochemical
T1 construct: tissue iPhase Pharmaceutical Services (Beijing, China) Lot # 7MMC011; host or cells: pooled human liver microsomes
Description: (§1) The samples containing HLMs were prepared in an ice bath, and three replicates of each dose were tested.
(§2) The reaction system consisted of 0.5 g/L HLMs, 1 mM NADPH, 25 µM phenacetin (CYP1A2 substrate), 25 µM tolbutamide (CYP2C9 substrate), 25 µM mephenytoin (CYP2C19 substrate), 10 µM dextromethorphan (CYP2D6 substrate) and 10 µM midazolam (CYP3A4 substrate). After incubation at 37 °C for 30 min, 200 µL of methanol containing 100 µg/L propranolol hydrochloride was added to terminate the reaction. The samples were then treated, and the corresponding substrate metabolites of CYP isoforms were detected according to a previously described method ([Shen et al., 2013]).

CYP1A2 = target: T2, CYP1A2 (Homo sapiens, UniProt P05177); assay: Inhibition of CYP activities by GA in HLMs (phenacetin); type: biochemical
T2 construct: tissue iPhase Pharmaceutical Services (Beijing, China) Lot # 7MMC011; host or cells: pooled human liver microsomes
T2 sequence (P05177 1-516): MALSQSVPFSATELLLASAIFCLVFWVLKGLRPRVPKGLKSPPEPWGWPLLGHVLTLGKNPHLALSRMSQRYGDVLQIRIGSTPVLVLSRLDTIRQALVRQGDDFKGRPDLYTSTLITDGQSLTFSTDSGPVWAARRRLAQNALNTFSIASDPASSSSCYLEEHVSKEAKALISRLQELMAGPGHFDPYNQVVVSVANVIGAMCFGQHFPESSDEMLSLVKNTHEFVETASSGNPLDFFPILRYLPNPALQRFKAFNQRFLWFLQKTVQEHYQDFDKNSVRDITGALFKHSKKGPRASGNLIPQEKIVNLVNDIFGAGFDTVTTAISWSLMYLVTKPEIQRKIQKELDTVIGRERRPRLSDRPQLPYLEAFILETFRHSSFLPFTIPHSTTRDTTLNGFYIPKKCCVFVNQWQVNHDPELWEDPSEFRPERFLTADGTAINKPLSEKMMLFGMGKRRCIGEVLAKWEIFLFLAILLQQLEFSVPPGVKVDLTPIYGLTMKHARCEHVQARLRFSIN
Description: as §1, §2

T1 sequence (P11712 whole entry): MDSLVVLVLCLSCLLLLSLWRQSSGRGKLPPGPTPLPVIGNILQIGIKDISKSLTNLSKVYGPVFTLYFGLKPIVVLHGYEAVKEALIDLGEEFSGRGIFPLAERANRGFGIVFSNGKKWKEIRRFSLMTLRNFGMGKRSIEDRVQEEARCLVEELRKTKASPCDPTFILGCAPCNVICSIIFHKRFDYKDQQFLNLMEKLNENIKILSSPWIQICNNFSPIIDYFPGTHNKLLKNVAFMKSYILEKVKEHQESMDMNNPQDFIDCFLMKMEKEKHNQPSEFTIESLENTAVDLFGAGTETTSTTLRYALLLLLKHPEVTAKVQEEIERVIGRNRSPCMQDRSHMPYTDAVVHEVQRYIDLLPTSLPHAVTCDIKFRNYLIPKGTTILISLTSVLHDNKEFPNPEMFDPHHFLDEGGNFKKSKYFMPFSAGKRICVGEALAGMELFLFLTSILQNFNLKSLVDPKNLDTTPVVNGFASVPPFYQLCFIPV

CC1(C)[C@@H](O)CC[C@]2(C)[C@H]3C(=O)C=C4[C@@H]5C[C@@](C)(C(=O)O)CC[C@]5(C)CC[C@@]4(C)[C@]3(C)CC[C@@H]12 [GA, Glycyrrhetinic acid]
IC50 (CYP2C9; HLMs, 30 min pre-incubation with NADPH, tolbutamide 25 µM): 26.5 ± 3.08 µM
activity at 30 min, 0.1 µM (CYP2C9; human, human liver microsomes, probe tolbutamide 25 µM, CYP2C9-30min, GA 0.1000, vs control, read-out: Relative activity (%)): 114%
activity at 30 min, 1 µM (CYP2C9; human, human liver microsomes, probe tolbutamide 25 µM, CYP2C9-30min, GA 1.0000, vs control, read-out: Relative activity (%)): 81%
activity at 30 min, 6.25 µM (CYP2C9; human, human liver microsomes, probe tolbutamide 25 µM, CYP2C9-30min, GA 6.2500, vs control, read-out: Relative activity (%)): 76.2%
activity at 30 min, 31.25 µM (CYP2C9; human, human liver microsomes, probe tolbutamide 25 µM, CYP2C9-30min, GA 31.2500, vs control, read-out: Relative activity (%)): 56.1%
activity at 30 min, 100 µM (CYP2C9; human, human liver microsomes, probe tolbutamide 25 µM, CYP2C9-30min, GA 100.0000, vs control, read-out: Relative activity (%)): 48.9%
activity at 30 min, 156.25 µM (CYP2C9; human, human liver microsomes, probe tolbutamide 25 µM, CYP2C9-30min, GA 156.2500, vs control, read-out: Relative activity (%)): 46.2%
activity at 30 min, 312.5 µM (CYP2C9; human, human liver microsomes, probe tolbutamide 25 µM, CYP2C9-30min, GA 312.5000, vs control, read-out: Relative activity (%)): 18.1%
activity at 30 min, […] (CYP2C9; human, human liver microsomes, probe tolbutamide 25 µM, read-out: Relative activity (%)): 35.9%
activity at 30 min, 1000 µM (CYP2C9; human, human liver microsomes, probe tolbutamide (25 µM), CYP2C9-30min, GA 1000.0000, vs control, read-out: Relative activity (%)): 14.9%
IC50 (CYP1A2; HLMs, 30 min pre-incubation with NADPH, phenacetin 25 µM): 61.1 ± 1.13 µM
activity at 30 min, 156.25 µM (CYP1A2; human, human liver microsomes (HLMs), probe phenacetin 25 µM, CYP1A2-30min, GA 156.2500, vs control, read-out: Relative activity (%)): 18.2%
activity at 30 min, 312.5 µM (CYP1A2; human, human liver microsomes, probe phenacetin 25 µM, CYP1A2-30min, GA 312.5000, vs control, read-out: Relative activity (%)): 14.1%
activity at 30 min, 1000 µM (CYP1A2; human, human liver microsomes, probe phenacetin 25 µM, CYP1A2-30min, GA 1000.0000, vs control, read-out: Relative activity (%)): 5.73%
activity at 30 min, […] (CYP1A2; human, human liver microsomes, probe phenacetin 25 µM, read-out: Relative activity (%)): 10.3%
activity at 30 min, 0.1 µM (CYP1A2; human, human liver microsomes, probe phenacetin (25 µM), CYP1A2-30min, GA 0.1000, vs control, read-out: Relative activity (%)): 95%
activity at 30 min, 1 µM (CYP1A2; human, human liver microsomes, probe phenacetin (25 µM), CYP1A2-30min, GA 1.0000, vs control, read-out: Relative activity (%)): 84.3%
activity at 30 min, 6.25 µM (CYP1A2; human, human liver microsomes, probe phenacetin (25 µM), CYP1A2-30min, GA 6.2500, vs control, read-out: Relative activity (%)): 89.2%
activity at 30 min, 31.25 µM (CYP1A2; human, human liver microsomes, probe phenacetin (25 µM), CYP1A2-30min, GA 31.2500, vs control, read-out: Relative activity (%)): 70.9%
activity at 30 min, 100 µM (CYP1A2; human, human liver microsomes, probe phenacetin (25 µM), CYP1A2-30min, GA 100.0000, vs control, read-out: Relative activity (%)): 31%
